{"source": "patent US10695330B2", "about": "“Methods of treatment” (Global Blood Therapeutics, Inc., priority 2015, dated 2020)", "key": {"[1]": {"tested_on": "mice with LPS-induced ALI", "assay": "LPS-induced acute lung injury mouse model with hypoxic challenge: inflammation, SpO2, survival", "type": "in vivo", "conditions": "for survival: after 4 hours of exposure to 5% O2 hypoxia; for increase of SpO2, of control value: 5% O2 hypoxia", "method": "Adult, 8-10-week-old male C57BL/6J mice (Jackson Laboratory, Bar Harbor, Me.), were anesthetized with isoflurane, injected with 100 μg LPS (Sigma, St. Louis, Mo.) in 100 μL PBS by direct intratracheal injection. After 24 hours, mice were given Compound 1 (70 or 140 mg/kg formulated in dimethylacetamide, polyethylene glycol 400 (PEG400) and 40% cavitron in a ratio of 1:5:4, respectively) or vehicle only (5 μL/g) by oral gavage 2 hours prior to placement in a hypoxia chamber. Mice were exposed to either 10 or 5% O2 for 4 hours. Oxygen saturation (SaO2) was measured with a pulse oximeter (STARR Life Sciences, Oakmont, Pa.) at baseline and hourly during hypoxic exposure. During hypoxic exposure, mice were monitored continuously and a moribund check was done every 15 minutes. Time to death was assessed by time to moribund status. Mice were determined to be moribund if they could not right themselves when placed in a supine position.\nBlood was collected by cardiac puncture in the hypoxic chamber. Blood gases were measured using the i-STAT portable analyzer within the hypoxic environment (Abaxis, Union City, Calif.). Remaining blood samples were used for hemoximetry and pharmacokinetic analysis. For sample collection, mice were euthanized with pentobarbital overdose. A bronchoaleveolar lavage (BAL) was performed with 900 uL Saline. Blood was collected by retro orbital puncture, and then spun to collect plasma. Lungs were removed and flash frozen. All samples were stored at −80° C. until further study. BAL inflammatory cell counts and differentials were determined manually after staining cytospins with DiffQuik. BAL protein was measured using a Pierce BCA Protein Assay Kit (Thermo Scientific, Waltham, Mass.).\nUsing a MouseOx, peripheral arterial O2 saturation (SpO2) was measured during hypoxia. SpO2 was measured for each group every hour during hypoxia. In general, SpO2 decreased during hypoxia for all groups. […] For example, during 5% O2 hypoxia, Compound 1 at 70 mg/kg or 140 mg/kg increased SpO2 by 22% or 31% of control value, respectively.\nDuring exposure hypoxia, mice were monitored continuously and a moribund check was done every 15 minutes. Time to death was assessed by time to moribund status. Mice were determined to be moribund if they could not right themselves when placed in a supine position."}, "[2]": {"tested_on": "mice with bleomycin-induced fibrosis", "assay": "Bleomycin induced mouse model of hypoxemia and pulmonary fibrosis", "type": "in vivo", "method": "Forty-eight C57B/L6 male mice aged 7-8 weeks were obtained from Simonsen Laboratory, Gilroy, Calif. The mice were ear tagged and weighed prior to the start of the study. The animals were distributed into four groups with twelve animals in each group. Body weights of all mice were recorded daily during the study. Animals in groups 2, 3 and 4 were administered 3 U/kg bleomycin sulfate USP (Teva Pharmaceuticals) via oropharyngeal route […] (see Walters, D. M. and S. R. Kleeberger (2008). “Mouse models of bleomycin-induced pulmonary fibrosis.” Curr Protoc Pharmacol Chapter 5: Unit 5 46.) Animals in group 1 were administered normal saline via oropharyngeal route.\nCompound 1 (formulated in dimethylacetamide: polyethylene glycol 400 (PEG400): 40% cavitron at a 1:5:4 ratio) was administered at either low dose (first day 50 mg/kg followed by 40 mg/kg daily) or high dose (first day 150 mg/kg followed by 85 mg/kg daily) via oral gavage to bleomycin treated mice once daily from day 8 to day 15. Animals in group 1 were administered vehicle via oral gavage. The dosing volume was 200 μL. The study animals were sacrificed on day 15 at 4 hours post final dose.\nSamples for hemoximetry and pharmacokinetics (PK) were taken 4 hours following the last dose of the dosing regimen. BAL fluid was collected from the lungs of the animals by lavaging the lung with 1 ml Hanks balanced salt media (HBSS). Lungs were harvested from each animal and weighed. They were then inflated by ˜0.5 mL of 10% NBF and fixed in a formalin container for subsequent histopathological analysis.\nHypoxia is a feature of IPF, and oxygen saturation measurements are often used clinically to evaluate the presence and severity of hypoxia. Responses to hypoxia in mice treated with Compound 1 were first evaluated by measuring arterial oxygen saturation (SaO2). On day 7 and 14 after bleomycin or saline instillation, 50 μL of arterial blood from the tail artery were used for measurement of arterial oxygen saturation (SaO2) using whole blood GEM OPL co-oximeter (Instrumentation Laboratory, MA). An additional aliquot of 100 μL of blood were collected from tail artery and arterial blood gases using the i-STAT Handheld Blood Analyzer (ABBOTT) were measured using CG4+ cartridges. For each mouse, SaO2 and arterial oxygen tension (pO2) were measured. […] In contrast, arterial oxygenation levels of vehicle treated mice further declined throughout the study (FIG. 4C). The arterial blood gases (ABG) were also analyzed on day 7 and day 14 (FIG. 4C). Data are expressed as means±SEM. […] In vehicle-treated bleomycin mice the pO2 reached a further decline at day 14.\nIn this bleomycin model, mice develop extensive pulmonary fibrosis as well as pulmonary inflammation; thus, the effect of Compound 1 treatment on the phenotype of pulmonary inflammatory cells was examined. The BAL fluid was centrifuged at 1,000 rpm at 4° C. for 5 minutes. The BAL cell pellets were suspended in 2 mls of 1× Pharmalyse buffer (BD Bioscience) to lyse the RBCs. PBS+2% FBS were added to stop the lysis reaction and cells centrifuged again. Leukocytes in the cell pellet were counted using a hemocytometer and the trypan blue exclusion method.\nPulmonary fibrosis was induced by administering mice a single dose of bleomycin. Collagen content of was determined by quantifying total soluble collagen in the BALF supernatant using the Sircol collagen dye binding assay according to the manufacturer's instructions (Biocolor Ltd, Carrick Fergus, UK).\nLungs were harvested from each animal and weighed at Day 15.\nThe histopathological analysis was conducted at Seventh Wave Laboratories, Chesterfield, Mo. The lung samples were processed and embedded with all lobes from each mouse in one paraffin block. Coronal sections through the four major lobes were stained with Masson's Trichrome. For each animal, consecutive lung fields were examined in a raster pattern using a 20× objective lens and a 10× or 40× ocular lens (200× or 800×). […]"}}}
{"smiles": "O=Cc1c(O)cccc1OC[C@@H]1CCCCN1C(=O)c1cccnc1", "note": "[Compound 1, (S)-2-hydroxy-6-((1-nicotinoylpiperidin-2-yl)methoxy)benzaldehyde]", "values": [{"measurement": "inflammation or lung injury (BALF total cells, neutrophils, macrophages, total protein)", "setting": "[1]; 100 μg LPS intratracheal", "value": "no significant effect on inflammation or lung injury"}, {"measurement": "survival", "setting": "[1]; 70 mg/kg", "value": 60, "unit": "%"}, {"measurement": "survival", "setting": "[1]; 140 mg/kg", "value": 86, "unit": "%"}, {"measurement": "increase of SpO2, of control value", "setting": "[1]; 70 mg/kg", "value": 22, "unit": "%"}, {"measurement": "increase of SpO2, of control value", "setting": "[1]; 140 mg/kg", "value": 31, "unit": "%"}, {"measurement": "SpO2 compared to control", "setting": "[1]; during 10% and 5% O2 hypoxia, average over 4 hours", "value": "higher in Compound 1 dosed mice compared to control"}, {"measurement": "arterial oxygen tension (pO2)", "setting": "[2]; day 14", "value": "tendency for an increase pO2 or prevention of further decline of pO2"}, {"measurement": "arterial oxygen saturation (SaO2)", "setting": "[2]; day 14, after seven consecutive days of treatment, low and high dose", "value": "return toward control values"}, {"measurement": "improvement of overall Ashcroft scores", "setting": "[2]; day 15, P<0.01", "value": "approximately 50%"}, {"measurement": "collagen protein (total soluble collagen in BALF supernatant, Sircol)", "setting": "[2]; day 15, P<0.05", "value": "significant reduction in collagen protein in the lungs"}, {"measurement": "total inflammatory cells recovered in BAL fluid", "setting": "[2]; day 15, P<0.05", "value": "significant reduction in total inflammatory cells recovered in BAL fluid"}, {"measurement": "lung weight", "setting": "[2]; day 15, vs bleomycin vehicle control, P<0.01", "value": "significantly heavier than lungs from Compound 1-treated mice"}, {"measurement": "collagen deposition (Masson's trichrome histology)", "setting": "[2]; day 15 lung sections, low and high dose", "value": "diminished collagen deposition"}]}
